Results reported in US20110086759A1, “CHEMICAL COMPOUNDS” (SYNGENTA CROP PROTECTION, INC., priority 2007, published 2011).

Legend:
Format in all cases: in vivo
[1] = test system: Alopecurus myosuroides (ALOMY); assay: Pre-emergence biological efficacy, glasshouse pot test; details: 312 h
Method in brief: (§1)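 Standard soil, pots, sown then sprayed at day 1 with 1000 or 250 g/ha test compound. Glasshouse: 24/16 °C, 14 h photoperiod, 65% humidity, twice-daily watering. Evaluation day 13, 0–100 damage score.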

[2] = test system: Amaranthus retoflexus (AMARE); assay: as above; details: Amaranthus retroflexus, 312 h
Method in brief: as §1

[3] = test system: Echinochloa crus-galli (ECHCG); assay: as above; details: 312 h
Method in brief: as §1

[4] = test system: Ipomea hederaceae (IPOHE); assay: as above; details: Ipomoea hederacea, 312 h
Method in brief: as §1

[5] = test system: Setaria faberi (SETFA); assay: as above; details: 312 h
Method in brief: as §1

[6] = test system: Solanum nigrum (SOLNI); assay: as above; details: 312 h
Method in brief: as §1

[7] = test system: Alopecurus myosuroides (ALOMY); assay: Post-emergence biological efficacy, glasshouse pot test; details: 312 h
Method in brief: (§2)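 Scored 13 days after spraying on a 0 (no damage) to 100 (total damage) scale. Treatment was a post-emergence spray at 1000 or 250 g/ha, from acetone/water 50:50 plus 0.5% Tween 20, onto 8-day-old plants in soil pots. Growth at 24/16° C, 14 h photoperiod, 65% humidity, watered twice daily.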

[8] = test system: Amaranthus retoflexus (AMARE); assay: as above; details: Amaranthus retroflexus, 312 h
Method in brief: as §2

[9] = test system: Echinochloa crus-galli (ECHCG); assay: as above; details: 312 h
Method in brief: as §2

[10] = test system: Ipomea hederaceae (IPOHE); assay: as above; details: Ipomoea hederacea, 312 h
Method in brief: as §2

[11] = test system: Setaria faberi (SETFA); assay: as above; details: 312 h
Method in brief: as §2

[12] = test system: Solanum nigrum (SOLNI); assay: as above; details: 312 h
Method in brief: as §2

[13] = pre-emergence, rate 1,000 g/ha, evaluated after 13 days (100=total damage to plant; 0=no damage), read-out: Percentage damage caused to weed species, ALOMY
[14] = pre-emergence, rate 1,000 g/ha, evaluated after 13 days (100=total damage to plant; 0=no damage), read-out: Percentage damage caused to weed species, AMARE
[15] = pre-emergence, rate 1,000 g/ha, evaluated after 13 days (100=total damage to plant; 0=no damage), read-out: Percentage damage caused to weed species, ECHCG
[16] = pre-emergence, rate 1,000 g/ha, evaluated after 13 days (100=total damage to plant; 0=no damage), read-out: Percentage damage caused to weed species, IPOHE
[17] = pre-emergence, rate 1,000 g/ha, evaluated after 13 days (100=total damage to plant; 0=no damage), read-out: Percentage damage caused to weed species, SETFA
[18] = pre-emergence, rate 1,000 g/ha, evaluated after 13 days (100=total damage to plant; 0=no damage), read-out: Percentage damage caused to weed species, SOLNI
[19] = Rate 1,000 g/ha, post-emergence spray, evaluated after 13 days (100=total damage to plant; 0=no damage to plant), read-out: Percentage damage caused to weed species, post-emergence, ALOMY
[20] = Rate 1,000 g/ha, post-emergence spray, evaluated after 13 days (100=total damage to plant; 0=no damage to plant), read-out: Percentage damage caused to weed species, post-emergence, AMARE
[21] = Rate 1,000 g/ha, post-emergence spray, evaluated after 13 days (100=total damage to plant; 0=no damage to plant), read-out: Percentage damage caused to weed species, post-emergence, ECHCG
[22] = Rate 1,000 g/ha, post-emergence spray, evaluated after 13 days (100=total damage to plant; 0=no damage to plant), read-out: Percentage damage caused to weed species, post-emergence, IPOHE
[23] = Rate 1,000 g/ha, post-emergence spray, evaluated after 13 days (100=total damage to plant; 0=no damage to plant), read-out: Percentage damage caused to weed species, post-emergence, SETFA
[24] = Rate 1,000 g/ha, post-emergence spray, evaluated after 13 days (100=total damage to plant; 0=no damage to plant), read-out: Percentage damage caused to weed species, post-emergence, SOLNI
[25] = pre-emergence, 1,000 g/ha, evaluated after 13 days (100=total damage; 0=no damage), read-out: Percentage damage ALOMY
[26] = pre-emergence, 1,000 g/ha, evaluated after 13 days (100=total damage; 0=no damage), read-out: Percentage damage AMARE
[27] = pre-emergence, 1,000 g/ha, evaluated after 13 days (100=total damage; 0=no damage), read-out: Percentage damage ECHCG
[28] = pre-emergence, 1,000 g/ha, evaluated after 13 days (100=total damage; 0=no damage), read-out: Percentage damage IPOHE
[29] = pre-emergence, 1,000 g/ha, evaluated after 13 days (100=total damage; 0=no damage), read-out: Percentage damage SETFA
[30] = pre-emergence, 1,000 g/ha, evaluated after 13 days (100=total damage; 0=no damage), read-out: Percentage damage SOLNI
[31] = post-emergence, 1,000 g/ha, evaluated after 13 days (100=total damage; 0=no damage), read-out: Percentage damage caused to weed species, ALOMY
[32] = post-emergence, 1,000 g/ha, evaluated after 13 days (100=total damage; 0=no damage), read-out: Percentage damage caused to weed species, AMARE
[33] = post-emergence, 1,000 g/ha, evaluated after 13 days (100=total damage; 0=no damage), read-out: Percentage damage caused to weed species, ECHCG
[34] = post-emergence, 1,000 g/ha, evaluated after 13 days (100=total damage; 0=no damage), read-out: Percentage damage caused to weed species, IPOHE
[35] = post-emergence, 1,000 g/ha, evaluated after 13 days (100=total damage; 0=no damage), read-out: Percentage damage caused to weed species, SETFA
[36] = post-emergence, 1,000 g/ha, evaluated after 13 days (100=total damage; 0=no damage), read-out: Percentage damage caused to weed species, SOLNI

| Structure (SMILES) | pest or weed control at 1000 g/ha [1, 13] [%] | pest or weed control at 1000 g/ha [2, 14] [%] | pest or weed control at 1000 g/ha [3, 15] [%] | pest or weed control at 1000 g/ha [4, 16] [%] | pest or weed control at 1000 g/ha [5, 17] [%] | pest or weed control at 1000 g/ha [6, 18] [%] | pest or weed control at 1000 g/ha [7, 19] [%] | pest or weed control at 1000 g/ha [8, 20] [%] | pest or weed control at 1000 g/ha [1, 25] [%] | pest or weed control at 1000 g/ha [2, 26] [%] | pest or weed control at 1000 g/ha [3, 27] [%] | pest or weed control at 1000 g/ha [4, 28] [%] | pest or weed control at 1000 g/ha [5, 29] [%] | pest or weed control at 1000 g/ha [6, 30] [%] | pest or weed control at 1000 g/ha [7, 31] [%] | pest or weed control at 1000 g/ha [8, 32] [%] | pest or weed control at 1000 g/ha [9, 33] [%] | pest or weed control at 1000 g/ha [10, 34] [%] | pest or weed control at 1000 g/ha [11, 35] [%] | pest or weed control at 1000 g/ha [12, 36] [%] | further results |
| --- | --- | --- | --- | --- | --- | --- | --- | --- | --- | --- | --- | --- | --- | --- | --- | --- | --- | --- | --- | --- | --- |
| COC(=O)c1nc(-c2ccc(Cl)c(F)c2)nc(NCc2ccco2)c1Cl [Compound 222-48, 5-Chloro-2-(4-chloro-3-fluorophenyl)-4-(furan-2-ylmethyl-amino)-6-methoxycarbonyl-pyrimidine] | 30 | 100 | 50 | 70 | 20 | 100 | 30 | 100 | – | – | – | – | – | – | – | – | – | – | – | – | pest or weed control at 1000 g/ha [9, 21]: 40%; pest or weed control at 1000 g/ha [10, 22]: 80%; pest or weed control at 1000 g/ha [11, 23]: 40%; pest or weed control at 1000 g/ha [12, 24]: 90% |
| COC(=O)c1nc(C2CC2)nc(N[C@H](C)c2ccc3ccccc3c2)c1Cl [4-185 (R), (R)-5-Chloro-2-cyclopropyl-6-methoxycarbonyl-4-[1-(naphtha-2-yl)ethylamino]-pyrimidine] | – | – | – | – | – | – | – | – | 0 | 0 | 0 | 70 | 0 | 0 | 0 | 80 | 0 | 70 | 0 | 40 | – |
| COC(=O)c1nc(C2CC2)nc(NCc2cccc(F)c2F)c1Cl [Compound 4-96, 5-Chloro-2-cyclopropyl-4-(2,3-difluorophenyl-methylamino)-6-methoxycarbonyl-pyrimidine] | – | – | – | – | – | – | – | – | 10 | 60 | 20 | 50 | 30 | 60 | 20 | 100 | 80 | 100 | 90 | 100 | – |
| COC(=O)c1ccc(CNc2nc(C3CC3)nc(C(=O)OC)c2Cl)cc1 [Compound 4-94, 5-Chloro-2-cyclopropyl-6-methoxycarbonyl-4-(4-methoxy-carbonylphenyl-methylamino)-pyrimidine] | – | – | – | – | – | – | – | – | 10 | 70 | 10 | 50 | 10 | 80 | 10 | 100 | 10 | 100 | 30 | 90 | – |
| COC(=O)c1nc(C2CC2)nc(NCCNc2ccccc2)c1Cl [Compound 4-260, 5-Chloro-2-cyclopropyl-6-methoxycarbonyl-4-[2-(phenylamino)-ethylamino)-pyrimidine] | – | – | – | – | – | – | – | – | 10 | 100 | 20 | 90 | 20 | 90 | 20 | 100 | 40 | 100 | 60 | 80 | – |
| CCN(Cc1ccco1)c1nc(C2CC2)nc(C(=O)OC)c1Cl [Compound 6-125, 5-Chloro-2-cyclopropyl-4-(N-ethyl-N-furan-2-ylmethyl-amino)-6-methoxycarbonyl-pyrimidine] | 50 | 90 | 40 | 100 | 30 | 80 | 40 | 100 | – | – | – | – | – | – | – | – | – | – | – | – | pest or weed control at 1000 g/ha [9, 21]: 60%; pest or weed control at 1000 g/ha [10, 22]: 100%; pest or weed control at 1000 g/ha [11, 23]: 90%; pest or weed control at 1000 g/ha [12, 24]: 90% |
| COC(=O)c1nc(C2CC2)nc(NC2CCC2)c1Cl [Compound 4-32, 5-Chloro-4-cyclobutylamino-2-cyclopropyl-6-methoxycarbonyl-pyrimidine] | – | – | – | – | – | – | – | – | 50 | 80 | 50 | 80 | 80 | 80 | 50 | 100 | 70 | 100 | 90 | 90 | – |
| COC(=O)c1nc(-c2ccc(OC)cc2)nc(NCc2ccco2)c1Cl [Compound 250-48, 5-Chloro-4-(furan-2-ylmethylamino)-2-(4-methoxyphenyl)-6-methoxycarbonyl-pyrimidine] | 0 | 30 | 0 | 0 | 20 | 0 | 0 | 90 | – | – | – | – | – | – | – | – | – | – | – | – | pest or weed control at 1000 g/ha [9, 21]: 30%; pest or weed control at 1000 g/ha [10, 22]: 30%; pest or weed control at 1000 g/ha [11, 23]: 50%; pest or weed control at 1000 g/ha [12, 24]: 40% |
| COC(=O)c1nc(C2CC2)nc(NC2(/C=C/c3ccc(Cl)cc3Cl)CC2)c1Cl [Compound 4-28, 5-Chloro-2-cyclopropyl-4-{1-[2-(2,4-dichloro-phenyl)ethenyl]-cyclopropyl-amino}-6-methoxy-carbonylpyrimidine] | – | – | – | – | – | – | – | – | 10 | 90 | 0 | 70 | 10 | 40 | 10 | 100 | 30 | 100 | 50 | 80 | – |
